Measured values as given in patent USRE48335E1, “Polymyxin derivatives as antimicrobial compounds” (priority 2014, dated 2020).
Converted amounts (≈) assume the structure as drawn. Positions of bridges follow the written chain, without caps; N, C: chain ends. Non-standard residues stand in square brackets, D forms with d. Residues, ends and D or L forms follow the SMILES beside them. *: point of attachment. Heptanoyl(6-Me) = CC(C)CCCCC(=O)*; dNva = CCC[C@@H](N)C(=O)O; Heptanoyl = CCCCCCC(=O)*; Octanoyl = CCCCCCCC(=O)*; Dab = NCC[C@H](N)C(=O)O; Abu = CC[C@H](N)C(=O)O; Dap = NC[C@H](N)C(=O)O; Hexanoyl = CCCCCC(=O)*

What was measured:
Pseudomonas aeruginosa = test system: Pseudomonas aeruginosa
Summary of the method: (§1)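 Read-out is the MIC, obtained by broth microdilution under CLSI guidance. Lipopeptides (TFA salt form) were diluted in cation-adjusted Mueller-Hinton broth, with polymyxin B sulphate run alongside as control.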

Acinetobacter baumannii = test system: Acinetobacter baumannii
Summary of the method: as §1

Enterobacter cloacae = test system: Enterobacter cloacae
Summary of the method: as §1

SMILES	Minimum inhibitory concentration, Pa ATCC 27853 (Pseudomonas aeruginosa) [µg/mL]	Minimum inhibitory concentration, Pa FADDI-PA022 (Pseudomonas aeruginosa) [µg/mL]	Minimum inhibitory concentration, Pa FADDI-PA025 (Pseudomonas aeruginosa) [µg/mL]	Minimum inhibitory concentration, Ab A ATCC 17978 (Acinetobacter baumannii) [µg/mL]	Minimum inhibitory concentration, Ab ATCC 19606 (Acinetobacter baumannii) [µg/mL]	Minimum inhibitory concentration, Ab FADDI-AB034 (Acinetobacter baumannii) [µg/mL]	Minimum inhibitory concentration, Ec FADDI-EC001 (Enterobacter cloacae) [µg/mL]	Minimum inhibitory concentration, Ec FADDI-EC003 (Enterobacter cloacae) [µg/mL]	Minimum inhibitory concentration, Ec FADDI-EC006 (Enterobacter cloacae) [µg/mL]
CCCCCCC(=O)N[C@@H](CCN)C(=O)N[C@H](C(=O)N[C@@H](CN)C(=O)N[C@H]1CCNC(=O)[C@H]([C@@H](C)O)NC(=O)[C@H](CCN)NC(=O)[C@H](CCN)NC(=O)[C@H](CC)NC(=O)[C@@H](CC(C)C)NC(=O)[C@H](CCN)NC1=O)[C@@H](C)O [Compound 64] (Heptanoyl-[Dab]T[Dap][Dab][Dab][dL][Abu][Dab][Dab]T; lactam 4-C)	1 (≈ 0.91 µM)	2 (≈ 1.82 µM)	8 (≈ 7.28 µM)	0.5 (≈ 0.455 µM)	0.5 (≈ 0.455 µM)	1 (≈ 0.91 µM)	0.5 (≈ 0.455 µM)	<0.125	0.25 (≈ 0.227 µM)
CC(C)CCCCC(=O)N[C@@H](CCN)C(=O)N[C@H](C(=O)N[C@@H](CN)C(=O)N[C@H]1CCNC(=O)[C@H]([C@@H](C)O)NC(=O)[C@H](CCN)NC(=O)[C@H](CCN)NC(=O)[C@H](C)NC(=O)[C@@H](CC(C)C)NC(=O)[C@H](CCN)NC1=O)[C@@H](C)O [Compound 65] ({Heptanoyl(6-Me)}-[Dab]T[Dap][Dab][Dab][dL]A[Dab][Dab]T; lactam 4-C)	1 (≈ 0.91 µM)	2 (≈ 1.82 µM)	16 (≈ 14.6 µM)	0.25 (≈ 0.227 µM)	0.5 (≈ 0.455 µM)	1 (≈ 0.91 µM)	0.5 (≈ 0.455 µM)	<0.125	0.25 (≈ 0.227 µM)
CC[C@@H]1NC(=O)[C@@H](CC(C)C)NC(=O)[C@H](CCN)NC(=O)[C@@H](NC(=O)[C@H](CN)NC(=O)[C@@H](NC(=O)[C@H](CCN)NC(=O)CCCCC(C)C)[C@@H](C)O)CCNC(=O)[C@H]([C@@H](C)O)NC(=O)[C@H](CCN)NC(=O)[C@H](CCN)NC1=O [Compound 66] ({Heptanoyl(6-Me)}-[Dab]T[Dap][Dab][Dab][dL][Abu][Dab][Dab]T; lactam 4-C)	1 (≈ 0.898 µM)	2 (≈ 1.8 µM)	4 (≈ 3.59 µM)	0.25 (≈ 0.225 µM)	0.25 (≈ 0.225 µM)	0.5 (≈ 0.449 µM)	0.5 (≈ 0.449 µM)	<0.125	0.25 (≈ 0.225 µM)
CCCCCC(=O)N[C@@H](CCN)C(=O)N[C@H](C(=O)N[C@@H](CN)C(=O)N[C@H]1CCNC(=O)[C@H]([C@@H](C)O)NC(=O)[C@H](CCN)NC(=O)[C@H](CCN)NC(=O)[C@H](C)NC(=O)[C@@H](CC(C)C)NC(=O)[C@H](CCN)NC1=O)[C@@H](C)O [Compound 67] (Hexanoyl-[Dab]T[Dap][Dab][Dab][dL]A[Dab][Dab]T; lactam 4-C)	0.5 (≈ 0.467 µM)	0.5 (≈ 0.467 µM)	2 (≈ 1.87 µM)	2 (≈ 1.87 µM)	4 (≈ 3.73 µM)	4 (≈ 3.73 µM)	<0.125	0.25 (≈ 0.233 µM)	0.5 (≈ 0.467 µM)
CCCCCC(=O)N[C@@H](CCN)C(=O)N[C@H](C(=O)N[C@@H](CN)C(=O)N[C@H]1CCNC(=O)[C@H]([C@@H](C)O)NC(=O)[C@H](CCN)NC(=O)[C@H](CCN)NC(=O)[C@H](CC)NC(=O)[C@@H](CC(C)C)NC(=O)[C@H](CCN)NC1=O)[C@@H](C)O [Compound 68] (Hexanoyl-[Dab]T[Dap][Dab][Dab][dL][Abu][Dab][Dab]T; lactam 4-C)	0.5 (≈ 0.461 µM)	0.5 (≈ 0.461 µM)	2 (≈ 1.84 µM)	1 (≈ 0.921 µM)	2 (≈ 1.84 µM)	1 (≈ 0.921 µM)	0.25 (≈ 0.23 µM)	<0.125	<0.125
CCCCCCCC(=O)N[C@@H](CCN)C(=O)N[C@H](C(=O)N[C@@H](CN)C(=O)N[C@H]1CCNC(=O)[C@H]([C@@H](C)O)NC(=O)[C@H](CCN)NC(=O)[C@H](CCN)NC(=O)[C@H](CC)NC(=O)[C@@H](CCC)NC(=O)[C@H](CCN)NC1=O)[C@@H](C)O [Compound 69] (Octanoyl-[Dab]T[Dap][Dab][Dab][dNva][Abu][Dab][Dab]T; lactam 4-C)	0.5 (≈ 0.455 µM)	0.5 (≈ 0.455 µM)	8 (≈ 7.28 µM)	0.5 (≈ 0.455 µM)	0.5 (≈ 0.455 µM)	0.25 (≈ 0.227 µM)	0.25 (≈ 0.227 µM)	<0.125	<0.125
